Source: patent US20160051491A1, “NOVEL USE OF PINOSYLVIN FOR ANGIOGENESIS PROMOTION” (INDUSTRY-ACADEMIC COOPERATION FOUNDATION, DANKOOK UNIVERSITY, priority 2013, published 2016)

What was measured:
[1] = tested on: Bovine aortic endothelial cells (BAECs); assay: Etoposide-induced apoptosis, Hoechst 33258 staining of fragmented nuclei; type: cell-based; conditions: FIG. 1B
Description: (§1) Bovine aortic endothelial cells (BAECs) were obtained from the descending thoracic aortas, and maintained in a growth medium (DMEM (1 g/L glucose, Life technologies, Inc.) containing 20% fetal bovine […] (FBS, Atlanta Biologicals) without antibiotics) at 37° C. in 5% CO2. The number of cells used for used in this study was between 3 generations and 10 generations, and they were allowed to grow in untreated culture dishes. Before drug treatment, BAECs were grown to confluency in a 5% CO2 incubator with growth media containing 50 μg/mL penicillin and 50 μg/mL streptomycin. The cells were then starved for between 4 hours and 24 hours in starvation media (DMEM supplemented with 0.5% FBS and 50 μg/mL penicillin and 50 μg/mL streptomycin).
For the apoptotic analysis, the confluent cells were incubated in 0.5% FBS-DMEM containing 0 μM or 100 μM etoposide (ETO, Sigma) or varying amounts of pinosylvin for 36 hours. […]
For Hoechst staining, the confluent cells were incubated with 0.5% FBS-DMEM containing 100 μM ETO without any compound (vehicle control) for 36 hours. […] After incubation, the stained cells were thoroughly washed with PBS and the nuclei were observed under a fluorescence microscope (Zeiss Autoplan 2) to confirm the occurrence of apoptosis.

caspase-3 = assay: Caspase-3 cleavage (Western blot) and caspase-3 colorimetric activity (Ac-DEVD-pNA) in BAEC lysates; type: cell-based, Bovine; conditions: FIGS. 1C and 1D
Description: Caspase-3 activity was measured with Ac-DEVD-pNA as a substrate using the caspase-3 Colorimetric Activity Assay Kit (Chemicon). Specifically, BAECs were grown to confluency in 20% FBS-DMEM and then starved for more than 8 hours. The cells were treated with various apoptotic agents (100 μM ETO) and then lysed. The cell lysates were reacted in a reaction buffer containing 236 μM Ac-DEVD-pNA with or without specific inhibitors (0.1 μM Ac-DEVD-CHO) in 96-well plates at 37° C. for 2 hours. Then, the caspase-3 activity was determined by measuring the absorbance of the reactions at 405 nm using a microplate reader (Bio-Rad, Model 550).
(§2) The BAECs were grown to confluency in 20% FBS-DMEM, washed with ice-cold PBS, scraped in 250 μL RIPA buffer (50 mM Tris, pH 7.5, 150 mM NaCl, 1% NP-40, 0.5% sodium deoxycholate, and 0.1% SDS), and solubilized for 15 minutes to prepare the cell lysates. All the solubilization procedures were performed at 4° C., and the protein content of the soluble cell lysates was measured using a Bio-Rad DC assay kit (Bio-Rad). The solution lysates (10 μg each) were resolved by SDS-PAGE. The resolved protein bands were then transferred to a polyvinylidene difluoride (PVDF) membrane (Bio-Rad) and probed with p-ERK (cell signaling), p-p38 MAP kinase (cell signaling), p-JNK (cell signaling), p-eNOS (cell signaling), p-Akt (cell signaling) and caspase-3 (cell signaling) for 1 hour to overnight. The membranes were then incubated with a secondary antibody at room temperature for 1 hour, where goat anti-rabbit IgG conjugated to alkaline phosphatase was used as a secondary antibody. Finally, the results were confirmed using a chemiluminescent detection method.

[2] = tested on: Bovine aortic endothelial cells (BAECs); assay: Serum starvation-induced apoptosis of endothelial cells (apoptotic cell count under microscope); type: cell-based
Description: as §1
[…] Since pinosylvin is not commercially available, it was synthesized as described (Park et al., Cell Physiol Biochem. 2011; 27(3-4): 353-62.). […]
Confluent BAECs were starved for more than 4 hours, treated with pinosylvin, and then incubated for an additional period of time (0 hours, 12 hours, 24 hours, and 48 hours) for the evaluation of time-dependent changes in apoptosis. […] For quantification, the present inventors counted the number of apoptotic cells in the same visual field.

[3] = tested on: Bovine aortic endothelial cells (BAECs); assay: Endothelial cell migration (wound scrape); type: cell-based; conditions: 1 pM pinosylvin, FIG. 4A
Description: Confluent BAECs were treated twice with 2 mM thymidine for 18 hours and wounded with a pipette tip. Then, the cells were incubated in the starvation media for 20 hours with increasing amounts of pinosylvin: 1) no pinosylvin, 2) 1 pM pinosylvin, or 3) 1 pM pinosylvin with 2.5 mM L-NAME, in DMEM, respectively. The migrated cells were observed under a microscope and quantified by counting the number of the migrated cells in the wound area.

p38 MAP kinase = assay: Western blotting of p-p38 MAP kinase in BAECs; type: cell-based, Bovine; conditions: 1 pM pinosylvin, 0 to 60 minutes, serum-depleted BAECs, FIG. 2
Description: as §2

Akt = assay: Western blotting of p-Akt in BAECs; type: cell-based, Bovine; conditions: 1 pM pinosylvin, 0 to 60 minutes, serum-depleted BAECs, FIG. 2
Description: as §2

eNOS = assay: Western blotting of p-eNOS in BAECs; type: cell-based, Bovine; conditions: 1 pM pinosylvin, 0 to 60 minutes, serum-depleted BAECs, FIG. 2
Description: as §2

[4] = tested on: Bovine aortic endothelial cells (BAECs); assay: Endothelial cell proliferation (microscopy, WST-1 assay); type: cell-based
Description: as §1
Cell proliferation was measured using a cell viability assay kit (Daeil Lab Service Co., LTD., Seoul, Korea). Specifically, confluent BAECs were serum-starved for 16 hours, and then various concentrations of pinosylvin or 20% serum were added and incubated. The cells were washed more than twice with PBS and reacted with the WST-1 reagent. The live cells were then measured at 450 nm using an ELISA microplate reader (Bio-Rad, Model 550).

ERK = assay: Western blotting of p-ERK in BAECs; type: cell-based, Bovine; conditions: 1 pM pinosylvin, 0 to 60 minutes, serum-depleted BAECs, FIG. 2
Description: as §2

JNK = assay: Western blotting of p-JNK in BAECs; type: cell-based, Bovine; conditions: 1 pM pinosylvin, 0 to 60 minutes, serum-depleted BAECs, FIG. 2
Description: as §2

[5] = tested on: Bovine aortic endothelial cells (BAECs); assay: Endothelial tube formation on ECM gel; type: cell-based; conditions: FIG. 4B
Description: ECM gel (Cell Biolabs Inc.) was thawed overnight at 4° C. Then, the thawed gel 50 μL was added into each well of the 96-well plates. To form a gel, the 96-well plates were incubated at 37° C. for 1 hour. Then, the BAEC suspension (1.5×10^4 cells/100 μL) containing no pinosylvin, 1 pM pinosylvin, or 1 pM pinosylvin with 2.5 mM L-NAME, in DMEM, respectively, was added into a gel and placed in a 5% CO2 incubator at 37° C. for 12 hours to 18 hours. Then, the endothelial cells were observed under a microscope to confirm tube formation.

Structure (SMILES)	fragmentation of the nuclei (Hoechst 33258 staining) ([1]; cells treated with 100 μM ETO alone)	caspase-3 activation (caspase-3; 100 μM ETO)	fragmentation of the nuclei (Hoechst 33258 staining), ETO-induced ([1]; 1 pM pinosylvin together with 100 μM ETO)	starvation-induced apoptosis, apoptotic cells counted per visual field ([2]; 1 pM to 10 μM of pinosylvin, FIG. 1A bottom panel)	serum starvation-induced apoptosis (round and shrunken cells) ([2]; BAECs serum-starved for 72 hours, low dose of pinosylvin, FIG. 1A top panel)	cell migration [3]	p38 phosphorylation (p38 MAP kinase)	Akt phosphorylation (Akt)	ETO-induced caspase-3 activation (caspase-3; 1 pM pinosylvin, 100 μM ETO)	starvation-induced caspase-3 activation (caspase-3; 1 pM pinosylvin, serum-depleted cells)	eNOS phosphorylation (eNOS)	number of cells compared with untreated cells (microscope) ([4]; 1 pM pinosylvin, thirty percent confluent BAECs, FIG. 3A)	cell proliferation, WST-1 assay ([4]; DMEM with none or 20% serum, 24 hours, FIG. 3B)	ERK phosphorylation (ERK)	JNK phosphorylation (JNK)	effect of tube formation by pinosylvin when treated concurrently with L-NAME ([5]; 1 pM pinosylvin with 2.5 mM L-NAME (eNOS inhibitor))	tube formation compared to the control group ([5]; 1 pM pinosylvin)
COc1cc([C@@H]2c3cc4c(cc3[C@@H](O[C@@H]3O[C@@H]5CO[C@@H](C)O[C@H]5[C@H](O)[C@H]3O)[C@H]3COC(=O)[C@H]23)OCO4)cc(OC)c1O [ETO, etoposide, reference compound]	detected	activate caspase-3	–	–	–	–	–	–	–	–	–	–	–	–	–	–	–
Oc1cc(O)cc(/C=C/c2ccccc2)c1 [pinosylvin, 5-[(E)-2-phenylethenyl]benzene-1,3-diol]	–	–	markedly reduced level	inhibited	prevent serum starvation-induced apoptosis	significantly promote cell migration	remained largely unchanged	substantially promoted	inhibited	inhibited	substantially promoted	increased	promote cell proliferation regardless of the presence of serum	remained largely unchanged	remained largely unchanged	reduced	significantly increase tube formation
